Data as given in PubChem BioAssay AID1845216 (Molecular Pharmacology Branch, DTP, NCI, 2023).
pIC50: −log10 of the molar value.

Test system: SW 982 tumor spheroid viability
Assay: Anticancer human tumor SW 982 cell line growth inhibition;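 note: spheroids exposed to compound for 7 days before readout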
Details: spheroids with HUVEC and MSC; for pIC50: curve of first compound; for viability, T/C: stronger effect = lower value
Description: Multicellular complex tumor spheroid response to DNA repair inhibitors in combination with DNA-damaging drugs
This study explores the anticancer activities of DNA-damaging drugs and inhibitors of DNA damage repair, both as single agents and in combinations. Complex tumor spheroids comprised of malignant cells, endothelial cells and mesenchymal stem cells served as an in vitro model for human solid tumors. This model system incorporates physiologically relevant features and patient-derived or established malignant cell lines with clinically relevant genetic alterations from many tumor types. Twenty-six patient-derived or established malignant cell lines were evaluated representing sarcoma, melanoma, small cell lung cancer (SCLC), non-small cell lung cancer (NSCLC), as well as bladder, ovarian and pancreatic cancers. The concentration ranges selected for each drug and investigational agent were based upon clinically achievable concentrations if the clinical Cmax of the agent was known.
Compounds. The drugs and compounds olaparib (NSC753686), talazoparib (NSC767125), berzosertib (NSC777718), elimusertib (NSC800525), nedisertib (NSC802822), VX-984 (NSC792969), AZD-1390 (NSC803789), temozolomide (NSC362856), topotecan (NSC609699), trabectedin (NSC813783), staurosporine (NSC755774), and gemcitabine (NSC613327) were obtained from the National Cancer Institute (NCI) Developmental Therapeutics Program Chemical Repository. The FDA-approved anticancer drug set is available from the Developmental Therapeutics Program at https://dtp.cancer.gov/organization/dscb/obtaining/available_plates.htm. […] The stock solutions were prepared in dimethyl sulfoxide (DMSO, Sigma-Aldrich, St. Louis, MO, cat. D2650) at 400-fold the tested concentration and stored at -70 degrees C. Prior to their use, the stock solutions were diluted in fresh medium and the final DMSO concentration in the assay was 0.25% (v/v). All drugs and investigational agents were tested over a range starting from a high concentration at or near the clinical Cmax and decreasing in half-log increments. If the clinical Cmax for an agent had not been determined, the highest concentration tested was 10 microM.
Cell Lines. The patient-derived cancer cell (PDC) lines: 156681-154-R-J1-PDC, 283228-195-R-J1-PDC, 287954-098-R-J1-PDC, 292921-168-R-J2-PDC, 349418-098-R-PDC, 425362-245-T-J1-PDC, 556581-035-R-J1-PDC, and BL0293-F563-PDC were received from the NCI Patient-Derived Models Repository (PDMR, https://pdmr.cancer.gov). The established cell lines HS-SY-2 (RRID:CVCL_8719), MPNST, and SYO-1 (RRID:CVCL_7146) were obtained from the Sloan Kettering Institute. The alveolar soft parts sarcoma cell line ASPS-1 (RRID:CVCL_S738) was established at the NCI and grown from internal seed stocks. The following established cell lines were purchased from the American Type Culture Collection (ATCC, Manassas, VA): G-401 (ATCC, cat. CRL-1441, RRID:CVCL_0270), SW982 (ATCC, cat. HTB-93, RRID:CVCL_1734), VA-ES-BJ (ATCC, cat. CRL-2138, RRID:CVCL_1785), NCI-H719 (ATCC, cat. CRL-5837, RRID:CVCL_1582), NCI-H196 (ATCC, cat. CRL-5823, RRID:CVCL_1509), NCI-H841 (ATCC, cat. CRL-5845, RRID:CVCL_1595), NCI-H1618 (ATCC, cat. CRL-5879, RRID:CVCL_1480), NCI-H1876 (ATCC, cat. CRL-5902, RRID:CVCL_1503), DMS 114 (ATCC, cat. CRL-2066; RRID:CVCL_1174), NCI-H211 (ATCC, cat. CRL-5824; RRID:CVCL_1529), and SW 1271 (ATCC, cat. CRL-2177, RRID:CVCL_1716). The small cell lung cancer cell line COR-L88 was purchased from Sigma-Aldrich (cat. 92031917-1VL, RRID:CVCL_1141). The non-small cell lung cancer cell lines NCI-H226 (RRID:CVCL_1544) and NCI-H322M (RRID:CVCL_1557) were established at the NCI and grown from internal seed stocks. Pooled donor human umbilical vein endothelial cells (HUVEC, Lonza, cat. CC-2519) and human mesenchymal stem cells (hMSC, Lonza, cat. PT-2501) were purchased from Lonza (Walkersville, MD).
Cell Culture. All cells were maintained in an incubator at 37 degrees C and 5% CO2 with 95% humidity. […]

Cc1cc(C)c(CNC(=O)c2cc(-c3ccc(CN4CCOCC4)cc3)cc3c2cnn3C2CCCC2)c(=O)[nH]1 + CC[C@@]1(O)C(=O)OCc2c1cc1n(c2=O)Cc2cc3c(CN(C)C)c(O)ccc3nc2-1
pIC50 (second compound 0.003 µM): < 5.00
pIC50 (second compound 0.00949 µM): < 5.00
pIC50 (second compound 0.03 µM): < 5.00
pIC50 (second compound 0.0949 µM): < 5.00
pIC50 (second compound 0.3 µM): 5.52
viability, T/C (second compound 0.003 µM, first compound 0.0316 µM): 96.8%
viability, T/C (second compound 0.003 µM, first compound 0.1 µM): 102%
viability, T/C (second compound 0.003 µM, first compound 0.316 µM): 103%
viability, T/C (second compound 0.003 µM, first compound 1 µM): 90.4%
viability, T/C (second compound 0.003 µM, first compound 3.16 µM): 85.9%
viability, T/C (second compound 0.003 µM, first compound 10 µM): 61.6%
viability, T/C (second compound 0.00949 µM, first compound 0.0316 µM): 96.1%
viability, T/C (second compound 0.00949 µM, first compound 0.1 µM): 86.6%
viability, T/C (second compound 0.00949 µM, first compound 0.316 µM): 86.5%
viability, T/C (second compound 0.00949 µM, first compound 1 µM): 85%
viability, T/C (second compound 0.00949 µM, first compound 3.16 µM): 83%
viability, T/C (second compound 0.00949 µM, first compound 10 µM): 63.3%
viability, T/C (second compound 0.03 µM, first compound 0.0316 µM): 97%
viability, T/C (second compound 0.03 µM, first compound 0.1 µM): 88.7%
viability, T/C (second compound 0.03 µM, first compound 0.316 µM): 101%
viability, T/C (second compound 0.03 µM, first compound 1 µM): 83.4%
viability, T/C (second compound 0.03 µM, first compound 3.16 µM): 86.2%
viability, T/C (second compound 0.03 µM, first compound 10 µM): 62.9%
viability, T/C (second compound 0.0949 µM, first compound 0.0316 µM): 87.7%
viability, T/C (second compound 0.0949 µM, first compound 0.1 µM): 87.4%
viability, T/C (second compound 0.0949 µM, first compound 0.316 µM): 85.2%
viability, T/C (second compound 0.0949 µM, first compound 1 µM): 89.6%
viability, T/C (second compound 0.0949 µM, first compound 3.16 µM): 75.6%
viability, T/C (second compound 0.0949 µM, first compound 10 µM): 61.7%
viability, T/C (second compound 0.3 µM, first compound 0.0316 µM): 63.7%
viability, T/C (second compound 0.3 µM, first compound 0.1 µM): 57.3%
viability, T/C (second compound 0.3 µM, first compound 0.316 µM): 54.7%
viability, T/C (second compound 0.3 µM, first compound 1 µM): 55%
viability, T/C (second compound 0.3 µM, first compound 3.16 µM): 52.3%
viability, T/C (second compound 0.3 µM, first compound 10 µM): 39%

Cc1sc2c(c1C)C(c1ccc(Cl)cc1)=NC(CC(=O)Nc1ccc(O)cc1)c1nnc(C)n1-2 (stereo not given) + CC[C@@]1(O)C(=O)OCc2c1cc1n(c2=O)Cc2cc3c(CN(C)C)c(O)ccc3nc2-1
pIC50 (second compound 0.003 µM): 6.55
pIC50 (second compound 0.00949 µM): 6.26
pIC50 (second compound 0.03 µM): 6.31
pIC50 (second compound 0.0949 µM): 6.35
pIC50 (second compound 0.3 µM): 6.60
viability, T/C (second compound 0.003 µM, first compound 0.00949 µM): 112%
viability, T/C (second compound 0.003 µM, first compound 0.03 µM): 110%
viability, T/C (second compound 0.003 µM, first compound 0.0949 µM): 76.4%
viability, T/C (second compound 0.003 µM, first compound 0.3 µM): 49.8%
viability, T/C (second compound 0.003 µM, first compound 0.949 µM): 40.1%
viability, T/C (second compound 0.003 µM, first compound 3 µM): 30.5%
viability, T/C (second compound 0.00949 µM, first compound 0.00949 µM): 97%
viability, T/C (second compound 0.00949 µM, first compound 0.03 µM): 98.9%
viability, T/C (second compound 0.00949 µM, first compound 0.0949 µM): 81.5%
viability, T/C (second compound 0.00949 µM, first compound 0.3 µM): 63.8%
viability, T/C (second compound 0.00949 µM, first compound 0.949 µM): 36.9%
viability, T/C (second compound 0.00949 µM, first compound 3 µM): 36.4%
viability, T/C (second compound 0.03 µM, first compound 0.00949 µM): 97.1%
viability, T/C (second compound 0.03 µM, first compound 0.03 µM): 95.8%
viability, T/C (second compound 0.03 µM, first compound 0.0949 µM): 83.2%
viability, T/C (second compound 0.03 µM, first compound 0.3 µM): 58.4%
viability, T/C (second compound 0.03 µM, first compound 0.949 µM): 38.8%
viability, T/C (second compound 0.03 µM, first compound 3 µM): 29.8%
viability, T/C (second compound 0.0949 µM, first compound 0.00949 µM): 95.2%
viability, T/C (second compound 0.0949 µM, first compound 0.03 µM): 92.1%
viability, T/C (second compound 0.0949 µM, first compound 0.0949 µM): 85.9%
viability, T/C (second compound 0.0949 µM, first compound 0.3 µM): 57.8%
viability, T/C (second compound 0.0949 µM, first compound 0.949 µM): 35.5%
viability, T/C (second compound 0.0949 µM, first compound 3 µM): 29.2%
viability, T/C (second compound 0.3 µM, first compound 0.00949 µM): 73.5%
viability, T/C (second compound 0.3 µM, first compound 0.03 µM): 80.6%
viability, T/C (second compound 0.3 µM, first compound 0.0949 µM): 71%
viability, T/C (second compound 0.3 µM, first compound 0.3 µM): 45.6%
viability, T/C (second compound 0.3 µM, first compound 0.949 µM): 30.4%
viability, T/C (second compound 0.3 µM, first compound 3 µM): 22.9%
